# Laboratory results as given in patent publication US6887896B1, “7-[(7-Alkoxy)-chrom-3-en-6-yl]-heptatrienoic acid and 7-[(3-alkoxy)-5,6-dihydronaphthalen-2-yl]-heptatrienoic acid derivatives having serum glucose reducing activity” (Allergan, Inc., priority 2003, dated 2005).
# pEC50, pKd, pKi: −log10 of the molar value.
# How the values were obtained:
# [1] = target: T1, RXRβ (UniProt P28704); test: ligand binding assay, RXRβ; conditions: for pKi: read-out: RXR Bind Ki β
# T1 sequence (P28704 1-520): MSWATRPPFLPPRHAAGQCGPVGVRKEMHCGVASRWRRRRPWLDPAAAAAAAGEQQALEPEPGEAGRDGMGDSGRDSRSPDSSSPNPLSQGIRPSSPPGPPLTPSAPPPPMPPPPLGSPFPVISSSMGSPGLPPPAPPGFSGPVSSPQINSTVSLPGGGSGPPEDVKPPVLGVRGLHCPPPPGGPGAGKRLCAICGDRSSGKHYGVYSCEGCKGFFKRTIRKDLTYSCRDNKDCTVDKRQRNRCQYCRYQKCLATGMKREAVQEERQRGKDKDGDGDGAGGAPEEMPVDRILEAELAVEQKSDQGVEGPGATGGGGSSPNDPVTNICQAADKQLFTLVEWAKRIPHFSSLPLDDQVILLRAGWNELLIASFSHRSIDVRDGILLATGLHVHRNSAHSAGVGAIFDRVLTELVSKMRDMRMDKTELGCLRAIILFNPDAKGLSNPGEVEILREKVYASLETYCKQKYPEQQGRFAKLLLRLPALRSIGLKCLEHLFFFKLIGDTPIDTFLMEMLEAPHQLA
# From the text: (§1) Specifically, one such assay is a chimeric receptor transactivation assay which tests for agonist-like activity in the R RAPE and RAR7 receptor subtypes, and which is based on work published by Feigner, P. L. and Holm, M (1989) Focus, 112 is described in detail in U.S. Pat. No. 5,455,265. The specification of U.S. Pat. No. 5,455,265 is hereby expressly incorporated by reference. A holoreceptor transactivation assay and a ligand binding assay which measure the antagonist/agonist like activity of the compounds of the invention, or their ability to bind to the several retinoid receptor subtypes, respectively, are described in published PCT Application No. WO WO93/11755 (particularly on pages 30-33 and 37-41) published on Jun. 24, 1993, the specification of which is also incorporated herein by reference. A detailed experimental procedure for holoreceptor transactivations has been described by Heyman et al. Cell 68, 397-406, (1992); Allegretto et al. J. Biol. Chem. 268, 26625-26633, and Mangelsdorf et al. The Retinoids: Biology, Chemistry and Medicine, pp 319-349, Raven Press Ltd., New York, which are expressly incorporated herein by reference. The results obtained in this assay are expressed in EC50 numbers, as they are also in the chimeric receptor transactivation assay. The results of the ligand binding assay are expressed in Ki numbers. (See Cheng et al. Biochemical Pharmacology Vol. 22 pp 3099-3108, expressly incorporated herein by reference.)
# (§2) Generally speaking, in the tables disclosing the results of transactivation and binding assays the numbers in parentheses indicate efficacy as a percentage compared to the standard compound, (2E,4E,1′S,2′S)-3-methyl-5-[2′-methyl-2′-(5,5,8,8-tetramethyl-5,6,7,8-tetrahydro-naphthalen-2-yl)cyclopropyl]-penta-2,4-dienoic acid and the other numbers indicate the measured EC50 and K; in nanomolar concentration.
# [2] = target: T1, RXRβ; test: holoreceptor transactivation assay, RXRβ; format: cell-based; conditions: for pEC50: holoreceptor transactivation, read-out: RXR Trans. EC50 β; for RXR Trans. efficacy (number in parentheses) β: percentage compared to the standard compound
# From the text: as §1
# Efficacy in a transactivation assay is expressed as a percentage of the maximum potency attained by the compound compared to a standard which, in this case, is the compound named (2E,4E,1′S,2′S)-3-methyl-5-[2′-methyl-2′-(5,5,8,8-tetramethyl-5,6,7,8-tetrahydro-naphthalen-2-yl)-cyclopropyl]-penta-2,4-dienoic acid. This standard compound is described in U.S. Pat. No. 6,114,533.
# The specification of this application for patent is organized in several sections in accordance with structural Formulas A through F each of which discloses a group of preferred compounds within the scope of the invention. Tables that disclose the activity of certain exemplary compounds of the invention in the above-described RXR receptor transactivation and binding assays are found in the corresponding sections. […] The transactivation data pertaining to the activation of RXR receptors were obtained in the holoreceptor assay.
# as §2
# [3] = target: T2, RXRα (Homo sapiens, UniProt P19793); test: ligand binding assay, RXRα; conditions: read-out: RXR Bind Ki α
# T2 construct: expressed in transfected cells
# T2 sequence (P19793 1-462): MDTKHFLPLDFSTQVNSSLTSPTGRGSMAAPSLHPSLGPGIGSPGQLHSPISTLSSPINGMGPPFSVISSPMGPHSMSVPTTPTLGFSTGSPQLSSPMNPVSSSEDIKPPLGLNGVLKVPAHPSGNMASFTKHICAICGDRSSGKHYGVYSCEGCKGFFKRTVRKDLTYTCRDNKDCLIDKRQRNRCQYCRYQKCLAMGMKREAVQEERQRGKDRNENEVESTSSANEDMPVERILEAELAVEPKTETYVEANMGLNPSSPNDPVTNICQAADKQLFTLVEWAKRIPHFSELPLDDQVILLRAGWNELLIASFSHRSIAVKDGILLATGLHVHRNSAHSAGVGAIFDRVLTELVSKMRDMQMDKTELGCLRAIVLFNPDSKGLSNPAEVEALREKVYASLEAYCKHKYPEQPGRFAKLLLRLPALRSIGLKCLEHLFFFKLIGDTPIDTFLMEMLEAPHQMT
# From the text: as §1, §2
# [4] = target: T3, RARγ (Homo sapiens, UniProt P13631); test: ligand binding assay, RARγ; conditions: for pKi: read-out: RAR Bind. Ki γ
# T3 sequence (P13631 1-454): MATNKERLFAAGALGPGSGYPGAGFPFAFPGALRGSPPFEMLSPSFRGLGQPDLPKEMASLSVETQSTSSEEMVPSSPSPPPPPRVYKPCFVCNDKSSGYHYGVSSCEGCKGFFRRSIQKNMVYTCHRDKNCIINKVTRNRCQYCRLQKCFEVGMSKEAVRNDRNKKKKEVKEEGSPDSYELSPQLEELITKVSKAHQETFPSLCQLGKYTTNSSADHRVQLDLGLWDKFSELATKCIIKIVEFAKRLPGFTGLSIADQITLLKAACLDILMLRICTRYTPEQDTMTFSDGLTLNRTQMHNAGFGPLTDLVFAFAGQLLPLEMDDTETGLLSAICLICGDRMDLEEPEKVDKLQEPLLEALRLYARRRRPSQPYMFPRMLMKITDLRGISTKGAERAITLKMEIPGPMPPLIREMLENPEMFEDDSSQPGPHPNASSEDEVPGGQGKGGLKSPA
# From the text: as §1, §2
SMILES,pKi [1],pEC50 [2],RXR Trans. efficacy (number in parentheses) β [2] [%],pKi [3],pKi [4],"pKd ([1]; Table 9 (Formula F), read-out: RXR β Kd)","pKd ([4]; Table 9 (Formula F), read-out: RAR γ Kd)"
CCOc1cc2c(cc1\C(C)=C(F)/C=C/C(C)=C/C(=O)O)C(C)=CCC2(C)C,7.82,7.92,59,8.70,5.92,,
"CCC1=CC(C)(C)Oc2cc(OC)c(\C(C)=C/C=C/C(C)=C/C(=O)O)cc21 [Compound 42, 7-(4-Ethyl-7-methoxy-2,2-dimethyl-2H-chromen-6-yl)-3-methyl-octa-2E,4E,6Z-trienoic acid]",6.64,7.26,98,7.31,< 5.00,,
"COc1cc2c(cc1\C(C)=C/C=C/C(C)=C/C(=O)O)C(C(C)C)=CC(C)(C)O2 [Compound 43, 7-(4-Isopropyl-7-methoxy-2,2-dimethyl-2H-chromen-6-yl)-3-methyl-octa-2E,4E,6Z-trienoic acid]",7.11,7.80,96,8.22,5.60,,
"CC/C(=C/C=C/C(C)=C/C(=O)O)c1cc2c(cc1OC)OC(C)(C)C=C2C(C)C [Compound 44, 7-(4-Isopropyl-7-methoxy-22-dimethyl-2H-chromen-6-yl)-3-methyl-nona-2E,4E,6Z-trienoic acid]",7.42,8.36,94,8.40,5.46,,
"CCOc1cc2c(cc1\C(C)=C/C=C/C(C)=C/C(=O)O)C(CC)=CC(C)(C)O2 [Compound 45, 7-(7-Ethoxy-4-ethyl-2,2-dimethyl-2H-chromen-6-yl)-3-methyl-octa-2E,4E,6Z-trienoic acid]",6.46,< 6.00,,7.28,5.64,,
"CCOc1cc2c(cc1\C(=C/C=C/C(C)=C/C(=O)O)CC)C(C)=CC(C)(C)O2 [Compound 46, 7-(7-Ethoxy-2,2,4-trimethyl-2H-chromen-6-yl)-3-methyl-nona-2E,4E,6Z-trienoic acid]",5.77,< 6.00,,6.70,5.47,,
"COc1c(\C(C)=C/C=C/C(C)=C/C(=O)O)cc2c(c1Cl)OC(C)(C)C=C2C(C)C [Compound 49, 7-(8-Chloro-4-isopropyl-7-methoxy-2,2-dimethyl-2H-chromen-6-y)-3-methyl-octa-2E,4E,6Z-trienoic acid]",7.70,9.05,98,8.70,< 5.00,,
"CCOc1c(\C(C)=C/C=C/C(C)=C/C(=O)O)cc2c(c1Cl)OC(C)(C)C=C2C(C)C [Compound 50, 7-(8-Chloro-4-isopropyl-7-ethoxy-2,2-dimethyl-2H-chromen-6-yl)-3-methyl-octa-2E,4E,6Z-trienoic acid]",7.12,7.72,57,8.40,5.23,,
CCOc1c(\C(=C/C=C/C(C)=C/C(=O)O)CC)cc2c(c1Cl)OC(C)(C)C=C2C(C)C [Compound 51],6.95,7.06,26,7.89,5.31,,
"CCOc1cc2c(cc1\C(C)=C(F)/C=C/C(C)=C/C(=O)O)C(CC)=CC(C)(C)O2 [Compound 123, 7-(7-Ethoxy-4-ethyl-2,2-dimethyl-2H-chromen-6-yl)-6-fluoro-3-methyl-octa-2E,4E,6E-trienoic acid]",< 5.00,,,6.08,< 5.00,,
"CCOc1cc2c(cc1\C(C)=C(F)/C=C/C(C)=C/C(=O)O)C(c1ccccc1)=CC(C)(C)O2 [Compound 127, (2E,4E,6E)-7-(7-Ethoxy-2,2-dimethyl-4-phenyl-2H-chromen-6-yl)-6-fluoro-3-methyl-octa-2,4,6-trienoic acid]",6.26,,,7.01,5.59,,
"CCCOc1cc2c(cc1\C(C)=C(F)/C=C/C(C)=C/C(=O)O)C(c1ccccc1)=CC(C)(C)O2 [Compound 128, (2E,4E,6E)-7-(2,2-Dimethyl-4-phenyl-7-propoxy-2H-chromen-6-yl)-6-fluoro-3-methyl-octa-2,4,6-trienoic acid]",6.54,,,7.28,6.12,,

# Second part, the molecule after the results:
pKi [1],pEC50 [2],RXR Trans. efficacy (number in parentheses) β [2] [%],pKi [3],pKi [4],"pKd ([1]; Table 9 (Formula F), read-out: RXR β Kd)","pKd ([4]; Table 9 (Formula F), read-out: RAR γ Kd)",SMILES
7.20,< 6.00,,8.22,,,,CCOc1cc2c(cc1\C(CC)=C(F)/C=C/C(C)=C/C(=O)O)C=CCC2(C)C [Compound A-77]
7.25,,,8.00,5.19,,,CCCOc1cc2c(cc1\C(C)=C(F)/C=C/C(C)=C/C(=O)O)C(C(C)C)=CCC2(C)C [Compound A-80]
7.48,,,7.92,5.25,,,"CC(/C=C/C(F)=C(/C)c1cc2c(cc1OCC1CC1)C(C)(C)CC=C2C(C)C)=C\C(=O)O [Compound A-81, (2E,4E,6E)-6-Fluoro-3-(4-dimethyl-6-(cyclopropyl)methoxy-1-isopropyl-3,4-dihydronaphthalen-7-yl)-3-methyl-2,4.6-octa-trienoic acid]"
7.00,,,7.89,6.56,,,"CCCOc1cc2c(cc1\C(C)=C(F)/C=C/C(C)=C/C(=O)O)C(C(C)(C)C)=CCC2(C)C [Compound A-84, (2E,4E,6E)-6-Fluoro-3-(4,$dimethyl-6-n-propoxy-1-tert-butyl-3,4-dihydronaphthalen-7-yl)-3-methyl-2,4,6-octatrienoic acid]"
,8.40,58,,,7.64,6.29,"CCOc1c(\C(CC)=C(F)/C=C/C(C)=C/C(=O)O)cc2c(c1Br)C(C)(C)CC=C2C(C)CC (centres unmarked) [Compound A-176, (2E,4E,6E)-7-(4-Bromo-8-sec-butyl-3-ethoxy-5,5-methyl-5,6-dihydro-naphthalen-2-yl)-6-fluoro-3-methyl-nona-2,4,6-trienoic acid]"
